This passage reports mortality, LC100 and LC50 results from ChEMBL document CHEMBL1146410, “Bioactive Terpenoids from Octocorallia. 4. Three New Cembrane-Type Diterpenoids from the Soft Coral Lobophytum schoedei” (J Nat Prod, 1997).

Format in all cases: organism-based
The nature of series [1]: Toxicity in Artemia salina larvae at 30 ppm. Particulars: in vivo, read-out: Activity.
The test system of series [2] is Oryzias latipes. Put plainly: Ichthyotoxicity in Oryzias latipes. The settings on record: in vivo.
Series [3] has as its system Oryzias latipes. The experiment in a line: Toxicity in Oryzias latipes. Particulars: in vivo.

On to `CC(=O)OCC1=C\CC/C(C)=C/CC[C@@]2(C)CC[C@@](C(C)C)(\C=C\1)O2` [LOBOPHYNIN A], for which the mortality at 30 ppm in series [1] stood at 20%. Regarding `COC(=O)/C1=C/CC/C(C)=C/[C@@H]2OCC(C)=C2CC[C@@]2(C)O[C@@H]2CC1` [LOBOPHYNIN C], the LC100 in series [2] is reported as 30 ppm. Further, the LC50 (usually the concentration that kills 50% of the test population) in series [3] was found to be 22.5 ppm. As for `CC(=O)OCC1=C2CC/C(C)=C/CC[C@@]3(C)O[C@@H]3CC/C(C)=C/[C@H]2OC1` [LOBOPHYNIN B], the mortality at 30 ppm in series [1] is 25%.
